# Experiments:
# [1] = system: HL-60; experiment: Antiproliferative activity of compound against HL60 leukemia cells; type: functional, cell-based; conditions: Homo sapiens
# [2] = system: Nucleic Acid; experiment: Binding affinity of compound for calf thymus DNA was determined; type: nucleic-acid assay; conditions: Bos taurus
IC50 [1],Ka [2],SMILES
8.2 µM,340000 M⁻¹,NCc1ccc(NC(=O)c2cc(NC(=O)c3ccc(CN)cc3)cn2Cc2ccccc2)cc1
5.4 µM,680000 M⁻¹,Cn1cc(NC(=O)c2ccc(CN)cc2)cc1C(=O)Nc1ccc(CN)cc1
1.7 µM,950000 M⁻¹,NCc1ccc(NC(=O)c2cc(NC(=O)c3ccc(CN)cc3)c[nH]2)cc1
